Assay results taken from US11958865B1, “Leucine-rich repeat kinase 2 (LRRK2) inhibitors” (H. Lundbeck A/S, priority 2022, dated 2024).
Read-outs that look alike come from different tables or passages of the source.

Experiments:
[1] = Hepatic microsomal intrinsic clearance assay; assay type: in vitro ADME; conditions: for CLint scaled at 1 μM: pooled liver microsomes, pH 7.4, liver microsomes 0.5 mg/mL, NADPH, 1 hour at 37° C., LLOQ 0.36 L/h/kg
Description: Compounds (final concentration 1 μM, 1% organic) of the invention were incubated for 1 hour at 37° C., with shaking, in phosphate buffer (pH 7.4) containing commercially sourced pooled liver microsomes (final concentration 0.5 mg/mL). […] At designated time points (0, 5, 10, 20, 30 and 60 minutes) ice-cold acetonitrile containing internal standard (300 μL) was added to an incubation well to stop the reaction then mixed and centrifuged (3220 g for 20 minutes at 4° C.). Supernatant was diluted (1:4) with deionized water then analyzed by LC-MS/MS.

[2] = Hepatocyte intrinsic clearance assay; assay type: in vitro ADME, Human; conditions: pooled donor, cryopreserved hepatocytes, pH 7.4; human hepatocytes 1×10^6/mL; 0.05 μM; 2 h at 37° C.
Description: Test compounds (final concentration 0.05 μM, 0.05% organic) were incubated for 2 h at 37° C., with shaking, in supplemented Leibovitz L-15 media (pH 7.4) containing commercially sourced, pooled donor, cryopreserved hepatocytes (final concentration 1×10^6 hepatocytes/mL). The CLint reactions (350 μL) were initiated by addition of test compound. Aliquots (25 μL) were taken at 1, 5, 10, 15, 30, 60, 90 and 120 minutes and then protein crashed with ice-cold acetonitrile containing internal standard (150 μL) then centrifuged (1960 g for 20 minutes at 4° C.). Supernatant was diluted (1:4) with deionized water then analyzed by liquid chromatography (LC)-tandem mass spectrometry (MS/MS).

[3] = biological target: T1, LRRK2 WT (Homo sapiens (Human), UniProt Q5S007); experiment: LRRK2 wild-type LanthaScreen TR-FRET kinase activity assay; assay type: biochemical; conditions: 1 nM kinase, 1.3 mM ATP, n≥2 tests
Description: (§1) LRRK2 kinase activity was measured using a LanthaScreen kinase activity assay available from Invitrogen (Life Technologies Corporation). […] The phosphorylated peptide is recognized by a terbium-labelled phospho-specific anti-LRRKtide antibody (pLRRKtide antibody), obtainable from Life Technologies Corporation) and, subsequently, the phosphorylated LRRKtide can be quantified by the extent of TR-FRET between the terbium donor and fluorescein acceptor.
(§2) As discussed above, this mutation increases the kinase activity relative to the wild type. The kinase reactions were performed in a 20 μL volume in 384-well plates. The kinase reaction buffer consisted of 50 mM Tris pH 8.5, 0.01% BRIJ-35, 10 mM MgCl2, 1 mM EGTA, and 2 mM DTT.
(§3) The mixture was further incubated for 30 minutes at RT. TR-FRET was measured by excitation of the terbium-donor with 340 nm light and subsequent (delay time […]) measurement of terbium and fluorescein emission at 495 nm and 520 nm, respectively, over a time window of […]. The measurement was repeated 30 times for fluorescein and 30 times for terbium emission with a […] between repeats. TR-FRET measurements were performed on a Biotek Synergy plate. The TR-FRET signal was calculated as the emission-ratio at 520 nm over 495 nm.
(§4) Test compound potency (IC50) was estimated by nonlinear regression using the sigmoidal dose-response (variable slope) using Xlfit 4 (IDBS, Guildford, Surrey, UK, model 205). Were the IC50 could not be determined the % inhibition at the highest tested concentration is given by equation 1. Equation (1): y=(A+((B−A)/(1+((C/x)^D)))) (1)
(§5) where y is the normalized TR-TRET ratio measurement for a given concentration of test compound, x is the concentration of test compound, A is the estimated efficacy (% inhibition) at infinite compound dilution, and B is the maximal efficacy (% inhibition). C is the IC50 value and D is the Hill slope coefficient. IC50 estimates were obtained from independent experiment and the logarithmic average was calculated.

[4] = biological target: LRRK2 G2019S (Homo sapiens (Human), UniProt Q5S007, G2019S); experiment: LRRK2 G2019S LanthaScreen TR-FRET kinase activity assay; assay type: biochemical; conditions: 250 pM kinase, 1.3 mM ATP, n≥2 tests
Description: as §1, §2, §3, §4, §5

[5] = biological target: T1, LRRK2 WT; experiment: LRRK2 wild-type ADP-Glo kinase assay; assay type: biochemical; conditions: 0.5 nM kinase; 1.0 mM ATP; IC50=Ki,app+[E]/2; n≥2 tests; read-out: LRRK2 WT ADPGlo IC50
Description: LRRK2 kinase activity was measured using an ADP-Glo kinase assay from Promega Corporation. The assay is a homogeneous luminescence-based assay that measures ADP formed from a kinase reaction. The ADP is converted into ATP, which is used to generate light in a luciferase reaction. The luminescence generated correlates with kinase activity.
The LRRK2 kinase was obtained from Invitrogen (Life Technologies Corporation) and comprises residue 970 to 2527 of the full length human wild-type LRRK2 kinase. The kinase reactions were performed in a 10 μL volume in 384-well plates. The kinase reaction buffer consisted of 50 mM Tris pH 8.5, 0.01% BRIJ-35, 10 mM MgCl2, 1 mM EGTA, and 2 mM DTT.
The reaction mixture (10 μl total volume) was incubated for 3 hours at room temperature (RT, ca. 25° C.), before the reaction was terminated by addition of 10 μl ADP-Glo reagent. The mixture was further incubated for 60 minutes at RT before addition of 20 μl Kinase detection reagent from the ADP-Glo assay kit. Luminescence signal was measure on a BMG Labtech Pherastar FSX multimode microplate reader. The signal integration time was 0.5 s.
Test compound potency (Ki,app) was estimated by nonlinear regression using the tight-binding fit model in GeneData Screener (GeneData AG). In cases where the Ki,app could not be determined, the % inhibition at the highest tested concentration is reported. The tight-binding fit model is given by euquation (2). […] Ki,app is the apparent dissociation constant of the inhibitor. The IC50 can be calculated as given by equation (3). Equation (3): IC50=Ki,app+[E]/2 (3) IC50 estimates were obtained from independent experiment and the logarithmic average was calculated.

[6] = Fraction unbound in rat plasma and brain homogenate by equilibrium dialysis; assay type: in vitro ADME, male Sprague-Dawley rat; conditions: 1 μM, equilibrium dialysis 5 h at 37° C.; for fubrain (% free): rat brain homogenate; for fuplasma (% free): rat plasma
Description: The fraction of unbound compound in male Sprague-Dawley rat plasma (fuplasma) and brain homogenate (fubrain) were determined by equilibrium dialysis using 96-well HTD-dialysis plates with dialysis membranes (molecular weight cut off 12-14 KDa). One side of the HTD-dialysis plate was loaded with matrix (plasma or brain homogenate) and the other side with buffer (100 mM sodium phosphate buffer, pH 7.4). Test compounds were dissolved in DMSO then spiked (5 μL of 0.2 mM) into blank (995 μL) plasma or diluted brain homogenate (1:4 ratio in phosphate buffer) giving a final nominal concentration 1 μM (≤0.5% DMSO). The matrices were loaded into respective chambers and equilibrated against phosphate buffer for 5 h at 37° C. (in a humidified air incubator with 5% CO2 with shaking). Samples from both chambers (buffer and plasma or brain homogenate) were aliquoted to fresh 96-well polypropylene plates then matrix matched using an equal volume of opposite blank matrix before extraction with cold solvent (3 volumes acetonitrile) containing an appropriate bioanalytical internal standard. After centrifugation (20 min, 3200 g, 4° C.) the supernatants were diluted with appropriate volumes of water and compound concentrations were quantified by LC/MS-MS against matrix matched calibration standards. The fuplasma and fubrain were calculated according to equation 4 below.
[formula] Where [F] is the compound concentration on the buffer (receiver) side of the membrane; [T] is the compound concentration on the plasma or brain (donor) side of the membrane; D is the matrix dilution factor which is determined as D=4 for brain matrix and D=1 for plasma matrix in these assays.

[7] = Rat brain disposition after oral gavage; assay type: in vivo, male Sprague-Dawley rats; conditions: male, Sprague-Dawley, oral 5 mg/kg, 1 h, mean ± stdev; for Kp at 1 h / Kp uu at 1 h: n=3
Description: Brain disposition was evaluated in male Sprague-Dawley rats (n=3, standard body weight). Briefly, test compound was formulated as a simple suspension (0.5% HPMC in water) then administered by oral gavage (10 mg/kg, 10 mL/kg or 5 mg/kg, 10 mL/kg). At the designated time point (0.5 or 1 h post dose) rats were sacrificed and terminal blood and brain samples taken. Isolated plasma and brain homogenates were extracted by standard protein precipitation in acetonitrile, containing internal standard. Diluted extracts were analyzed by liquid-chromatography coupled with tandem mass spectrometry detection (LC-MS/MS) using a bioanalytical method. Concentrations of test compound in plasma and brain were quantified against matrix matched calibration standards. The total plasma and brain concentration time data are presented in Table 4 alongside the calculated brain Kp (total brain concentration:total plasma concentration ratio).
The total brain-to-plasma partition coefficient (brain Kp) is given by the ratio of the total brain concentration and total plasma concentration of the compound according to the equation below: […]
Based on the measured rat fuplasma and fubrain values and the brain Kp the unbound brain-to-plasma partition coefficient (brain Kp,uu for each compound was calculated. The Kp,uu parameter describes the extent of brain penetration for each compound, i.e. the parameter gives a direct quantitative description of how the blood-brain barrier (BBB) handles the compounds regarding passive transport and active influx/efflux. The brain Kp,uu is given by the equation below: […]

[8] = brain, n=3, read-out: Total brain concentration
[9] = plasma, n=3, read-out: Total plasma concentration

Chain of LRRK2 G2019S (Q5S007 970-2527 G2019S): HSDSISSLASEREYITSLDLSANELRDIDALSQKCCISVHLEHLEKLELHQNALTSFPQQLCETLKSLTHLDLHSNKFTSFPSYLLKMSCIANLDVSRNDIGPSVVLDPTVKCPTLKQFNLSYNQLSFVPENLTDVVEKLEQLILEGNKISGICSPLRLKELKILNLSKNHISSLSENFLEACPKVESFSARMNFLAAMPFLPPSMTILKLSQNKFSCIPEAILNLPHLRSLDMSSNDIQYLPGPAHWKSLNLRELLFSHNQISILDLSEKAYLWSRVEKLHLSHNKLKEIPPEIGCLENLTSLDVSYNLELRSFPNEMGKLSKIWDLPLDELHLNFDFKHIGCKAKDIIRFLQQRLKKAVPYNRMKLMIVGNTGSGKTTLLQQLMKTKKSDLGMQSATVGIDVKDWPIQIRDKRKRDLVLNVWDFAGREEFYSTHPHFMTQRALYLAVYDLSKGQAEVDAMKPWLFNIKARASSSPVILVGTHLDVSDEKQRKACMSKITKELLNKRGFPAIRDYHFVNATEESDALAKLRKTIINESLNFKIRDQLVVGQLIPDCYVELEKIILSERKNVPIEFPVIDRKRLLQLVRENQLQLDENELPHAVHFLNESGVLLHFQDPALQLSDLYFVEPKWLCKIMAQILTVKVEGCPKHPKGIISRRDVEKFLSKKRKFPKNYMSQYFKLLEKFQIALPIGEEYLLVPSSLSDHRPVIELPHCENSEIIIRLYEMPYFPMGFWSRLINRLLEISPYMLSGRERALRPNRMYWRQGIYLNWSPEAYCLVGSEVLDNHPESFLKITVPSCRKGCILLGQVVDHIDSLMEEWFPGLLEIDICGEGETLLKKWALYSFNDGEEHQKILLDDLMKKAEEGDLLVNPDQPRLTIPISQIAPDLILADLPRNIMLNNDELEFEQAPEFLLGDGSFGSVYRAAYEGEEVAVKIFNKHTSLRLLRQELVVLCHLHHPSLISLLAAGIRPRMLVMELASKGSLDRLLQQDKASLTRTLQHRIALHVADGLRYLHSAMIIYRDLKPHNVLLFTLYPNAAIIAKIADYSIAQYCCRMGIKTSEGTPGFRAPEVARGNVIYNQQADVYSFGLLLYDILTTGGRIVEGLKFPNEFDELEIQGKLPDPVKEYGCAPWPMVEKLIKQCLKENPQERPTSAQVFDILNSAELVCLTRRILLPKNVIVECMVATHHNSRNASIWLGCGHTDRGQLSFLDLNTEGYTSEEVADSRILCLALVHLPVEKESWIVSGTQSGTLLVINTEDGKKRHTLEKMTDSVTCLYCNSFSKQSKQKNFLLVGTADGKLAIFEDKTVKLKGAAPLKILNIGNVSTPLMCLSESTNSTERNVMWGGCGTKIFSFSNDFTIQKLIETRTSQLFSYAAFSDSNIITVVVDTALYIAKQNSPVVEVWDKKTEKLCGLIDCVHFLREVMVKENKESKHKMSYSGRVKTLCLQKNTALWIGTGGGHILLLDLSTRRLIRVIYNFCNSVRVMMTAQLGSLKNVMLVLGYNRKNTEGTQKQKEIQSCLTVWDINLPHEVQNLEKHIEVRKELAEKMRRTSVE
T1 sequence (Q5S007 970-2527): as the sequence (Q5S007 970-2527 G2019S) above, with S1050G counted along it

| SMILES | CLint scaled at 1 μM [1] | CLint scaled at 0.05 μM [2] | IC50 [3] | IC50 [4] | IC50 [5] | fubrain (% free) [6] | fuplasma (% free) [6] | Kp at 1 h ([7]; brain) | Kp uu at 1 h ([7]; brain) | concentration at 1 h [7, 8] | concentration at 1 h [7, 9] | Rate of metabolism classification (liver microsomal CLint) ([1]; based on liver microsomal CLint values of Table 6) |
| --- | --- | --- | --- | --- | --- | --- | --- | --- | --- | --- | --- | --- |
| [2H]C([2H])([2H])Oc1ncc(F)cc1-n1nc2c(c1C)Nc1ncc3c(Cl)nn(c3n1)CCCO2 (single isomer, unassigned) [Example 23, 8-Chloro-2-(5-fluoro-2-(methoxy-d3)pyridin-3-yl)-3-methyl-2,4,12,13-tetrahydro-11H-5,7-(azenometheno)dipyrazolo[3,4-b:5′,1′-g][1]oxa[4,6,8]triazacycloundecine] | 23.8 mL/min/kg | 16.2 mL/min/kg | – | – | – | – | – | – | – | – | – | – |
| CCc1c2c(nn1-c1cccnc1OC)OCCCn1nc(Cl)c3cnc(nc31)N2 [Example 5, 8-Chloro-3-ethyl-2-(2-methoxypyridin-3-yl)-2,4,12,13-tetrahydro-11H-5,7-(azenometheno)dipyrazolo[3,4-b:5′,1′-g][1]oxa[4,6,8]triazacycloundecine] | 23.2 mL/min/kg | – | 4 nM | 1.4 nM | 0.41 nM | 5.2 % free | 12.3 % free | 1.9 ± 0.3 | 0.8 ± 0.13 | 7 ± 3 ng/g | 4 ± 0.8 ng/mL | – |
| CCc1c2c(nn1-c1cccnc1C)OCCCn1nc(Cl)c3cnc(nc31)N2 [Example 8, 8-Chloro-3-ethyl-2-(2-methylpyridin-3-yl)-2,4,12,13-tetrahydro-11H-5,7-(azenometheno)dipyrazolo[3,4-b:5′,1′-g][1]oxa[4,6,8]triazacycloundecine] | 16.8 mL/min/kg | – | 35 nM | 12 nM | 2.5 nM | 7.5 % free | 19.3 % free | 0.9 ± 0.1 | 0.37 ± 0.03 | 279 ± 10 ng/g | 297 ± 29 ng/mL | – |
| Cc1c2c(nn1-c1cccnc1OC1CC1)OCCCn1nc(Cl)c3cnc(nc31)N2 [Example 16, 8-Chloro-2-(2-cyclopropoxypyridin-3-yl)-3-methyl-2,4,12,13-tetrahydro-11H-5,7-(azenometheno)dipyrazolo[3,4-b:5′,1′-g][1]oxa[4,6,8]triazacycloundecine] | 18.7 mL/min/kg | – | 2.1 nM | 0.93 nM | 0.57 nM | 3.5 % free | 13.9 % free | 1.3 ± 0.2 | 0.32 ± 0.06 | 141 ± 30 ng/g | 112 ± 18 ng/mL | – |
| Cc1c2c(nn1-c1cccnc1OCF)OCCCn1nc(Cl)c3cnc(nc31)N2 [Example 18, 8-Chloro-2-(2-(fluoromethoxy)pyridin-3-yl)-3-methyl-2,4,12,13-tetrahydro-11H-5,7-(azenometheno)dipyrazolo[3,4-b:5′,1′-g][1]oxa[4,6,8]triazacycloundecine] | 11.2 mL/min/kg | – | 0.67 nM | 0.49 nM | 0.44 nM | 4.7 % free | 12.8 % free | 2.8 ± 0.6 | 1.04 ± 0.21 | 343 ± 54 ng/g | 122 ± 11 ng/mL | – |
| Cc1c2c(nn1-c1cccnc1OC(F)F)OCCCn1nc(Cl)c3cnc(nc31)N2 [Example 19, 8-Chloro-2-(2-(difluoromethoxy)pyridin-3-yl)-3-methyl-2,4,12,13-tetrahydro-11H-5,7-(azenometheno)dipyrazolo[3,4-b:5′,1′-g][1]oxa[4,6,8]triazacycloundecine] | 33.8 mL/min/kg | – | 1.1 nM | 0.35 nM | 0.32 nM | 2.7 % free | 8.6 % free | 2.8 ± 0.5 | 0.87 ± 0.17 | 48 ± 11 ng/g | 19 ± 8 ng/mL | moderate to high rate of metabolism |
